Test results from patent publication US8853239B2, “Compounds, pharmaceutical compositions and uses thereof” (Boehringer Ingelheim International GmbH, priority 2011, dated 2014).

target: T1, human GPR119 (Homo sapiens, UniProt Q8TDV5); assay: AlphaScreen cAMP assay in MIN6 cells stably transfected with human GPR119; format: cell-based; details: Min-6/hGPR119 cells, stimulation of intracellular cAMP, 45 minutes incubation at room temperature
T1 construct: expression vector for human GPR119 cDNA (Acc. No. NP_848566); expressed in transfected cells
T1 sequence (Q8TDV5 1-335): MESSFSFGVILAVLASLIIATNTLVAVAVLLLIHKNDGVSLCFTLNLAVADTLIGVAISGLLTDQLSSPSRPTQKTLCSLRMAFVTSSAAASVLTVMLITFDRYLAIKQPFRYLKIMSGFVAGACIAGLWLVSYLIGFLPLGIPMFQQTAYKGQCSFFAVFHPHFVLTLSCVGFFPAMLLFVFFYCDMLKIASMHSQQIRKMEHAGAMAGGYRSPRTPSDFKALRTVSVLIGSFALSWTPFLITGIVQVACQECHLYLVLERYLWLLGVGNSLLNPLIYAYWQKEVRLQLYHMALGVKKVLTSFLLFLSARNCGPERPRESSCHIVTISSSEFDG
Description: The compounds of formula I according to the invention modulate the activity of the G-protein-coupled receptor GPR119. The effect of the compounds on the activation of GPR119 and on the stimulation of intracellular cAMP concentration is determined using the AlphaScreen cAMP Assay Kit (Cat. No. #6760625R) made by PerkinElmer.
MIN6 cells [Miyazaki J et al. Endocrinology. 1990 July; 127(1):126-32] are stably transfected with an expression vector for human GPR119 cDNA (Acc. No. NP_848566). Min-6/hGPR119 cells are cultured in DMEM, 10% FBS, 50 μM β-mercaptoethanol, 0.3 mg/mL Geniticin, 2 mM GlutaMAX at 37° C. 5% CO2. For the assay, the cells are seeded in Optiplates (white, 384-well, 160W-barcoded, TC, sterile with lid, Cat. No. #6007688 (Perkin Elmer); 10000 cells/well; 50 μl). The plates covered with lids are then incubated for 24 hours at 37° C./5% CO2. After the medium is aspirated from the wells completely, 10 μl of the test compound are added, the compounds are diluted using stimulating buffer (140 mM NaCl, 3.6 mM KCl, 0.5 mM NaH2PO4, 0.5 mM MgSO4, 1.5 mM CaCl2, 10 mM Hepes, 5 mM NaHCO3; pH 7.4. 0.5 mM IBMX and 0.1% BSA, the final DMSO concentration is 1%). After 45 minutes incubation at room temperature (approx. 20° C.), the cAMP concentrations are determined using the AlphaScreen cAMP Assay Kit (Cat. No. #6760625R from PerkinElmer).

SMILES | EC50 [µM]
CC(C)(F)CN1CCC([C@H]2Cc3cc(-c4ccc(S(C)(=O)=O)cc4)ncc3O2)CC1 [Example 19, (R)-2-[1-(2-Fluoro-2-methyl-propyl)-piperidin-4-yl]-5-(4-methanesulfonyl-phenyl)-2,3-dihydro-furo[2,3-c]pyridine] | 0.084
CC(C)(F)CN1CCC(C2Cc3cc(C4CCN(S(C)(=O)=O)CC4)ncc3O2)CC1 (centres unmarked) [Example 5, 2-[1-(2-Fluoro-2-methyl-propyl)-piperidin-4-yl]-5-(1-methanesulfonyl-piperidin-4-yl)-2,3-dihydro-furo[2,3-c]pyridine] | 0.663
C[C@]1(C2CCN(CC3(C(F)(F)F)CC3)CC2)Cc2cc(-c3ccc(S(C)(=O)=O)cc3)ncc2O1 [Example 18] | 0.027
CS(=O)(=O)Cc1ccc(-c2cc3c(cn2)OC(C2CCN(CC4(C(F)(F)F)CC4)CC2)C3)cc1 (centres unmarked) [Example 8, 5-(4-Methanesulfonylmethyl-phenyl)-2-{1-[(1-trifluoromethyl-cyclopropyl)methyl]-piperidin-4-yl}-2,3-dihydrofuro[2,3-c]pyridine] | 0.035
CC(C)(F)CN1CCC(C2Cc3cc(-c4ccc(CS(C)(=O)=O)cc4)ncc3O2)CC1 (centres unmarked) [Example 4, 2-[1-(2-Fluoro-2-methyl-propyl)-piperidin-4-yl]-5-(4-methanesulfonylmethyl-phenyl)-2,3-dihydro-furo[2,3-c]pyridine] | 0.215
CS(=O)(=O)N1CC=C(c2cc3c(cn2)O[C@@H](C2CCN(CC4(C(F)(F)F)CC4)CC2)C3)CC1 [Example 14, (R)-5-(1-Methanesulfonyl-1,2,3,6-tetrahydro-pyridin-4-yl)-2-{1-[(1-trifluoromethyl-cyclopropyl)methyl]-piperidin-4-yl}-2,3-dihydro-furo[2,3-c]pyridine] | 0.002
CS(=O)(=O)Cc1ccc(-c2cc3c(cn2)OC(C2CCN(CC4(C(F)(F)F)CC4)CC2)C3)c(F)c1 (centres unmarked) [Example 7, 5-(2-Fluoro-4-methanesulfonylmethyl-phenyl)-2-{1-[(1-trifluoromethyl-cyclopropyl)methyl]-piperidin-4-yl}-2,3-dihydrofuro[2,3-c]pyridine] | 0.022
CC(C)(F)CN1CCC(C2Cc3cc(-c4ccc(CS(C)(=O)=O)cc4F)ncc3O2)CC1 (centres unmarked) [Example 9, 5-(2-Fluoro-4-methanesulfonylmethyl-phenyl)-2-[1-(2-fluoro-2-methyl-propyl)-piperidin-4-yl]-2,3-dihydro-furo[2,3-c]pyridine] | 0.1
CC(C)(F)CN1CCC(C2Cc3cc(-c4ccc(S(C)(=O)=O)cc4)ccc3O2)CC1 (centres unmarked) [Example 1, 1-(2-Fluoro-2-methyl-propyl)-4-[5-(4-methanesulfonyl-phenyl)-2,3-dihydro-benzofuran-2-yl]-piperidine] | 0.417

Second part, the compound after the results:

EC50 [µM] | SMILES
0.848 | CC(C)(F)CN1CCC([C@@H]2Cc3cc(C4=CCN(S(C)(=O)=O)CC4)ncc3O2)CC1 [Example 11, (S)-2-[1-(2-Fluoro-2-methyl-propyl)-piperidin-4-yl]-5-(1-methanesulfonyl-1,2,3,6-tetrahydro-pyridin-4-yl)-2,3-dihydro-furo[2,3-c]pyridine]
0.025 | CC(C)(F)CN1CCC([C@@]2(C)Cc3cc(C4=CCN(S(C)(=O)=O)CC4)ncc3O2)CC1 [Example 16, (R)-2-[1-(2-Fluoro-2-methyl-propyl)-piperidin-4-yl]-5-(1-methanesulfonyl-1,2,3,6-tetrahydro-pyridin-4-yl)-2-methyl-2,3-dihydro-furo[2,3-c]pyridine]
0.005 | C[C@]1(C2CCN(CC3(C(F)(F)F)CC3)CC2)Cc2cc(C3=CCN(S(C)(=O)=O)CC3)ncc2O1 [Example 13, (R)-5-(1-Methanesulfonyl-1,2,3,6-tetrahydro-pyridin-4-yl)-2-methyl-2-{1-[(1-trifluoromethyl-cyclopropyl)methyl]-piperidin-4-yl}-2,3-dihydro-furo[2,3-c]pyridine]
0.066 | CC(C)(F)CN1CCC([C@@]2(C)Cc3cc(-c4ccc(S(C)(=O)=O)cc4)ncc3O2)CC1 [Example 10, (R)-2-[1-(2-Fluoro-2-methyl-propyl)-piperidin-4-yl]-5-(4-methanesulfonyl-phenyl)-2-methyl-2,3-dihydro-furo[2,3-c]pyridine]
0.021 | CS(=O)(=O)N1CC=C(c2cc3c(cn2)OC(C2CCN(CC4(C(F)(F)F)CC4)CC2)C3)CC1 (racemic) [Example 6, 5-(1-Methanesulfonyl-1,2,3,6-tetrahydro-pyridin-4-yl)-2-{1-[(1-trifluoromethyl-cyclopropyl)methyl]-piperidin-4-yl}-2,3-dihydro-furo[2,3-c]pyridine]
0.036 | CC(C)(F)CN1CCC(C2Cc3cc(C4=CCN(S(C)(=O)=O)CC4)ncc3O2)CC1 (centres unmarked) [Example 3, 2-[1-(2-Fluoro-2-methyl-propyl)-piperidin-4-yl]-5-(1-methanesulfonyl-1,2,3,6-tetrahydro-pyridin-4-yl)-2,3-dihydro-furo[2,3-c]pyridine]
0.078 | CS(=O)(=O)N1CC=C(c2cc3c(cn2)O[C@H](C2CCN(CC4(C(F)(F)F)CC4)CC2)C3)CC1 [Example 15, (S)-5-(1-Methanesulfonyl-1,2,3,6-tetrahydro-pyridin-4-yl)-2-{1-[(1-trifluoromethyl-cyclopropyl)methyl]-piperidin-4-yl}-2,3-dihydro-furo[2,3-c]pyridine]
0.046 | CC(C)(F)CN1CCC([C@H]2Cc3cc(C4=CCN(S(C)(=O)=O)CC4)ncc3O2)CC1 [Example 12, (R)-2-[1-(2-Fluoro-2-methyl-propyl)-piperidin-4-yl]-5-(1-methanesulfonyl-1,2,3,6-tetrahydro-pyridin-4-yl)-2,3-dihydro-furo[2,3-c]pyridine]
